# Source: PMC11881559 (Antimicrobial Agents and Chemotherapy, 2025)
# Where “and” joins values, the source holds several entries; their conditions need not be identical. Equal entries are not always repeated.
# Assays:
# [1] = Tolerability and safety assessment (AEs/ADRs, CTCAE 5.0); format: in vivo, human
# Protocol: Safety and tolerability assessments were conducted for all participants who received at least one dose of RAY1216, either alone or in combination with ritonavir, throughout the study. The safety of all participants was evaluated on the basis of clinical symptoms, vital signs, 12-lead ECG, laboratory tests, physical examinations, and the evaluation of adverse events (AEs). All AEs were documented and graded according to the Common Terminology Criteria for Adverse Events (CTCAE, ver. 5.0). The grading scale was as follows: grade 1 (mild), grade 2 (moderate), grade 3 (severe), grade 4 (life threatening), and grade 5 (death).
# [2] = Preclinical toxicology, NOAEL in rats; format: in vivo; settings: from rat NOAEL, at 60 kg body weight
# wild-type strain = settings: in vitro, corrected by the plasma protein binding rate; cited from earlier work
# Omicron = settings: in vitro, corrected by the plasma protein binding rate; cited from earlier work
# [3] = Multiple ascending dose (MAD) study, plasma PK; settings: for t1/2: mean ± SD
# [4] = Drug-drug interaction (DDI) study with ritonavir, plasma PK; settings: 200 mg in combination with ritonavir vs 200 mg alone
compound,measurement,setting,value
"O=C(NC1CCCC1)C(=O)[C@H](C[C@@H]1CCNC1=O)NC(=O)[C@@H]1[C@H]2CCC[C@H]2CN1C(=O)[C@@H](NC(=O)C(F)(F)F)C1CCCCC1 [RAY1216, leritrelvir]",Anemia (ADR),"[1]; SAD, 800 mg (N = 6)",0 n (%)
same,Bilirubin elevated (ADR),"[1]; SAD, 800 mg (N = 6)",0 n (%)
same,Diarrhea (ADR),"[1]; SAD, 800 mg (N = 6)",0 n (%)
same,Fatigue (ADR),"[1]; SAD, 800 mg (N = 6)",0 n (%)
same,Grade 2 ADRs,"[1]; SAD, 800 mg (N = 6)",0 n (%)
same,Grade ≥3 AEs,"[1]; SAD, 800 mg (N = 6)",0 n (%)
same,Hypertriglyceridemia (ADR),"[1]; SAD, 800 mg (N = 6)",0 n (%)
same,Hyperuricemia (ADR),"[1]; SAD, 800 mg (N = 6)",0 n (%)
same,Leukopenia (ADR),"[1]; SAD, 800 mg (N = 6)",0 n (%)
same,Nausea (ADR),"[1]; SAD, 800 mg (N = 6)",0 n (%)
same,Neutrophil decreased (ADR),"[1]; SAD, 800 mg (N = 6)",0 n (%)
same,Palpitations (ADR),"[1]; SAD, 800 mg (N = 6)",0 n (%)
same,Serum creatinine elevated (ADR),"[1]; SAD, 800 mg (N = 6)",0 n (%)
same,"ADR, n (%)","[1]; SAD, 1,600 mg (N = 6)",2 (33.3) n (%)
same,"AE, n (%)","[1]; SAD, 1,600 mg (N = 6)",2 (33.3) n (%)
same,ALT elevated (ADR),"[1]; SAD, 1,600 mg (N = 6)",0 n (%)
same,AST elevated (ADR),"[1]; SAD, 1,600 mg (N = 6)",0 n (%)
same,Anemia (ADR),"[1]; SAD, 1,600 mg (N = 6)",0 n (%)
same,Bilirubin elevated (ADR),"[1]; SAD, 1,600 mg (N = 6)",1 (16.7) n (%)
same,Diarrhea (ADR),"[1]; SAD, 1,600 mg (N = 6)",0 n (%)
same,Fatigue (ADR),"[1]; SAD, 1,600 mg (N = 6)",0 n (%)
same,Grade 2 ADRs,"[1]; SAD, 1,600 mg (N = 6)",0 (0.0) n (%)
same,Grade ≥3 AEs,"[1]; SAD, 1,600 mg (N = 6)",0 n (%)
same,Hypertriglyceridemia (ADR),"[1]; SAD, 1,600 mg (N = 6)",1 (16.7) n (%)
same,Hyperuricemia (ADR),"[1]; SAD, 1,600 mg (N = 6)",1 (16.7) n (%)
same,Leukopenia (ADR),"[1]; SAD, 1,600 mg (N = 6)",0 n (%)
same,Nausea (ADR),"[1]; SAD, 1,600 mg (N = 6)",0 n (%)
same,Neutrophil decreased (ADR),"[1]; SAD, 1,600 mg (N = 6)",0 n (%)
same,Palpitations (ADR),"[1]; SAD, 1,600 mg (N = 6)",0 n (%)
same,Serum creatinine elevated (ADR),"[1]; SAD, 1,600 mg (N = 6)",0 n (%)
same,participants reporting at least one ADR,"[1]; SAD, 1,600 mg cohort, two participants",33.3%
same,participants reporting at least one ADR,"[1]; SAD, 6 out of 32 participants",18.8%
same,"ADR, n (%)","[1]; SAD/DDI, 200 mg (N = 6)",2 (33.3) n (%)
same,"AE, n (%)","[1]; SAD/DDI, 200 mg (N = 6)",2 (33.3) n (%)
same,ALT elevated (ADR),"[1]; SAD/DDI, 200 mg (N = 6)",0 n (%)
same,AST elevated (ADR),"[1]; SAD/DDI, 200 mg (N = 6)",0 n (%)
same,Anemia (ADR),"[1]; SAD/DDI, 200 mg (N = 6)",0 n (%)
same,Bilirubin elevated (ADR),"[1]; SAD/DDI, 200 mg (N = 6)",0 n (%)
same,Diarrhea (ADR),"[1]; SAD/DDI, 200 mg (N = 6)",0 n (%)
same,Fatigue (ADR),"[1]; SAD/DDI, 200 mg (N = 6)",0 n (%)
same,Grade 2 ADRs,"[1]; SAD/DDI, 200 mg (N = 6)",1 (16.7) n (%)
same,Grade ≥3 AEs,"[1]; SAD/DDI, 200 mg (N = 6)",0 n (%)
same,Hypertriglyceridemia (ADR),"[1]; SAD/DDI, 200 mg (N = 6)",2 (33.3) n (%)
same,Hyperuricemia (ADR),"[1]; SAD/DDI, 200 mg (N = 6)",0 n (%)
same,Leukopenia (ADR),"[1]; SAD/DDI, 200 mg (N = 6)",0 n (%)
same,Nausea (ADR),"[1]; SAD/DDI, 200 mg (N = 6)",0 n (%)
same,Neutrophil decreased (ADR),"[1]; SAD/DDI, 200 mg (N = 6)",0 n (%)
same,Palpitations (ADR),"[1]; SAD/DDI, 200 mg (N = 6)",0 n (%)
same,Serum creatinine elevated (ADR),"[1]; SAD/DDI, 200 mg (N = 6)",0 n (%)
same,"grade 3 or above AEs, withdrawal due to AEs, SAEs",[1]; all cohorts,"No grade 3 or above AEs, participant withdrawal due to AEs, or SAEs occurred"
same,participants reporting at least one ADR,"[1]; food-effect study, RAY1216 alone, 5 out of 12 participants",41.7%
same,participants reporting at least one ADR,"[1]; food-effect study, RAY1216 alone, after meals, 4 out of 12",33.3%
same,participants reporting at least one ADR,"[1]; food-effect study, RAY1216 alone, fasting, 2 out of 12",16.7%
same,human equivalent dose,[2],"approximately 10,800 mg/day"
same,antiviral 90% effective concentration (EC90),wild-type strain,0.165 µg/mL
same,antiviral 90% effective concentration (EC90),Omicron,0.2097 µg/mL
same,plasma concentration reached a steady state by,[3]; 400 mg TID,≤ 2 days
same,AUC0-t,"[3]; 400 mg TID, Day 1, mean (%CV)","9,720 (36) ng·h/mL"
same,AUC0-tau,"[3]; 400 mg TID, Day 1, mean (%CV)","10,600 (30.4) ng·h/mL"
same,AUC0-∞,"[3]; 400 mg TID, Day 1, mean (%CV)","13,300 (32) ng·h/mL"
same,Cmax,"[3]; 400 mg TID, Day 1, mean (%CV)","3,450 (37.2) ng/mL"
same,MRT0-∞,"[3]; 400 mg TID, Day 1, mean (%CV)",3.93 (16.5) h
same,t1/2,"[3]; 400 mg TID, Day 1",2.31 ± 0.465 h
same,Tmax,"[3]; 400 mg TID, Day 1, median (range)","1.5 (1.0, 2.0) h"
same,AUC0-t,"[3]; 400 mg TID, Day 5, mean (%CV)","15,400 (32.5) ng·h/mL"
same,AUC0-tau,"[3]; 400 mg TID, Day 5, mean (%CV)","10,000 (36) ng·h/mL"
same,AUC0-∞,"[3]; 400 mg TID, Day 5, mean (%CV)","15,500 (32.2) ng·h/mL"
same,Cmax,"[3]; 400 mg TID, Day 5, mean (%CV)","2,700 (32.3) ng/mL"
same,"Cmin,ss","[3]; 400 mg TID, Day 5, mean (%CV)",382 ng/mL and 382 (44.9) ng/mL
same,MRT0-∞,"[3]; 400 mg TID, Day 5, mean (%CV)",6.23 (18.9) h
same,t1/2,"[3]; 400 mg TID, Day 5",9.61 ± 2.26 h
same,Tmax,"[3]; 400 mg TID, Day 5, median (range)","1.5 (1.0, 3.0) h"
same,Tmax,"[3]; 400 mg TID, continuous administration",1.5 h
same,plasma concentrations reached a steady state by,"[3]; 300, 500 or 700 mg with 100 mg ritonavir BID",≤ 2 days
same,mean AUC0-t increased to,[4],350.07%
same,mean AUC0-∞ increased to,[4],171.00%
same,mean C12h concentration increased by,[4],417.3 ng/mL
same,mean Cmax increased to,[4],348.03%
